Measurements from patent US7947684B2, “1-aroyl-piperidinyl benzamidines” (Aventis Pharmaceuticals Inc., priority 2000, dated 2011).
Where a name gives a salt, the structure may show the parent alone.

Biological target: Factor Xa (Homo sapiens, UniProt P00742)
Experiment: Enzyme assay, purified factor Xa, peptide-p-nitroanilide substrate
Type: biochemical
Conditions: apparent Ki from IC50 by Cheng-Prusoff, room temperature, 1 nM enzyme
Experimental: (§1) All enzyme assays are carried out at room temperature in 96-well microtiter plates using a final enzyme concentration of 1 nM. The concentrations of factor Xa and thrombin are determined by active site titration and the concentrations of all other enzymes are based on the protein concentration supplied by the manufacturer. Compounds according to the invention are dissolved in DMSO, diluted with their respective buffers and assayed at a maximal final DMSO concentration of 1.25%. Compound dilutions are added to wells containing buffer and enzyme and pre-equilibrated for between 5 and 30 minutes. The enzyme reactions are initiated by the addition of substrate and the color developed from the hydrolysis of the peptide-p-nitroanilide substrates is monitored continuously for 5 minutes at 405 nm on a Vmax microplate reader (Molecular Devices). Under these conditions, less than 10% of the substrate is utilized in all assays. […] The apparent Ki values are then determined according to the Cheng-Prusoff equation (IC50=Ki[1+[S]/Km]) assuming competitive inhibition kinetics.

Factor Xa, sequence (P00742 235-488 limits assumed): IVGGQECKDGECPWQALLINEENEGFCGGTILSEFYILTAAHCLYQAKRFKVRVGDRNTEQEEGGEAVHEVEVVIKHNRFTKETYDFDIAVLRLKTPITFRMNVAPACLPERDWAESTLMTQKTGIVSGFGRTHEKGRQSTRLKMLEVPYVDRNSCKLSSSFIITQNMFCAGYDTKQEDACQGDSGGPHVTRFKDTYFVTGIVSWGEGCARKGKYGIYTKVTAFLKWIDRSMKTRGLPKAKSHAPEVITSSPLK
Factor Xa, sequence (P00742 41-179 partner limits assumed): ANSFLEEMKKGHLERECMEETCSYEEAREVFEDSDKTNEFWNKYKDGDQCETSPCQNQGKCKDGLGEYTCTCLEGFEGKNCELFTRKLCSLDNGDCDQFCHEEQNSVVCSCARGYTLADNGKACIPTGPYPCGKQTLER

Row | Ki [nM] | SMILES
1 | 34 | N=C(N)c1cccc(C2=CCN(C(=O)c3ccc(-c4ccc(Br)o4)cc3)CC2)c1 [Example 10, 3-{1-[4-(5-Bromofuran-2-yl)-benzoyl]-1,2,3,6-tetrahydropyridin-4-yl}benzamidine trifluoroacetate]
2 | 688 | N=C(N)c1cccc(C2=CCN(C(=O)c3ccc(-c4ccc(Cl)s4)cc3)CC2)c1 [Example 11, 3-{1-[4-(5-Chlorothiophen-2-yl)-benzoyl]-1,2,3,6-tetrahydropyridin-4-yl}benzamidine trifluoroacetate]
3 | 9 | N=C(N)c1cccc(C2CCN(C(=O)c3ccc(-c4ccccn4)cc3)CC2)c1 [Example 25, 3-[1-(4-Pyridin-2-ylbenzoyl)-piperidin-4-yl]benzamidine ditrifluoroacetate]
4 | 63 | N=C(N)c1cccc(C2=CCN(C(=O)c3ccc(-c4ncccn4)cc3)CC2)c1 [Example 16, 3-[1-(4-Pyrimidin-2-ylbenzoyl)-1,2,3,6-tetrahydropyridin-4-yl]-benzamidine ditrifluoroacetate]
5 | 140 | Nc1nccc2ccc(C3=CCN(C(=O)c4ccc(-c5ccc(=O)[nH]c5)cc4)CC3)cc12 [Example 39, 5-{4-[4-(1-Aminoisoquinolin-7-yl)-3,6-dihydro-2H-pyridine-1-carbonyl]phenyl}-1H-pyridin-2-one trifluoroacetate]
6 | 5 | N=C(N)c1cccc(C2=CCN(C(=O)c3ccc(-c4cccnc4)cc3)CC2)c1 [Example 8, 3-[1-(4-Pyridin-3-yl-benzoyl)-1,2,3,6-tetrahydropyridin-4-yl]benzamidine ditrifluoroacetate]
7 | 990 | Nc1nccc2[nH]c(C3CCN(C(=O)c4ccc(-c5ccc(=O)[nH]c5)cc4)CC3)cc12 [Example 44, 5-{4-[4-(4-Amino-1H-pyrrolo[3,2-c]pyridin-2-yl)piperidine-1-carbonyl]phenyl}-1H-pyridin-2-one trifluoroacetate]
8 | 570 | NC(=O)c1cccc(-c2ccc(C(=O)N3CCC(c4ccc5ccnc(N)c5c4)CC3)cc2)c1 [Example 35, 4′-[4-(1-Aminoisoquinolin-7-yl)piperidine-1-carbonyl]biphenyl-3-carboxylic acid amide trifluoroacetate]

Biological target: human lung tryptase or recombinant human β tryptase
Experiment: Tryptase inhibition activity, S2366 substrate
Type: biochemical
Conditions: room temperature, 0.5 mM substrate
Experimental: as §1
Tryptase inhibition activity is confirmed using either isolated human lung tryptase or recombinant human β tryptase expressed in yeast cells. Essentially equivalent results are obtained using isolated native enzyme or the expressed enzyme. […]

Row | Ki [nM] | SMILES
9 | 183 | N=C(N)c1cccc(C2=CCN(C(=O)c3cncc(C#Cc4ccccc4)c3)CC2)c1 [Example 47, 3-[1-(5-Phenylethynyl-pyridine-3-carbonyl)-1,2,3,6-tetrahydropyridin-4-yl]-benzamidine hydrochloride]
10 | 1070 | N=C(N)c1cccc(N2CCN(C(=O)c3cncc(CCc4ccccc4)c3)CC2)c1 [Example 49, 3-[4-(5-Phenylethyl-pyridine-3-carbonyl)-piperazin-1-yl]-benzamidine di-hydrochloride]
